Results published in patent US20150265682A1, “THERAPEUTIC METHODS AND COMPOSITIONS FOR TREATING DIABETES” (Orient Europharma Co., Ltd., priority 2014, published 2015).

System: human hepatocellular carcinoma cell line, Hep3B
Experiment: Glycogen content assay in Hep3B cells
Format: cell-based
Details: 30 minutes
Protocol: The C2C12 skeletal muscle cells were cultured in Dulbecco's modified Eagle's medium (DMEM; Gibco/Invitrogen, Carlsbad, Calif.), and the human hepatocellular carcinoma cell line, Hep3B, was cultured in Roswell Park Memorial Institute medium 1640 (RPMI 1640 medium; Gibco/Invitrogen, Carlsbad, Calif.). Cells were cultured at 37° C. in the humidified incubator supplied with 5% CO2. Culture mediums were supplemented with 4.5 mgmL^−1 glucose, penicillin 100 IUmL^−1, streptomycin 100 μgmL^−1 and 10% fetal bovine serum (Gibco/Invitrogen, Carlsbad, Calif.). Only C2C12 cells were then switched to 2% horse serum for 3 days after reaching the 70% confluence. Myotubes formation was achieved after 4 days of incubation, and the cells were used for subsequent experiments. Culture mediums were replaced by serum free DMEM or RPMI for 24 h before experiments (see e.g., procedure described in Sultan et al., 2006).
C2C12 and Hep3B cells were treated with 1 nM insulin, 100 μM metformin, and the assigned concentration of borapetoside A for 30 minutes. To develop the insulin resistance state of cells, C2C12 cells were incubated with IL-6 at 20 ngmL^−1 for 1 hour. Later, the cells were treated with 1 nM insulin, 100 μM metformin, and the assigned concentration of borapetoside A for 30 minutes. After the assigned treatment, cells were washed twice with phosphate buffered saline (PBS). Glycogen content was measured as previously described, with some modifications (see e.g., Savage et al., 2008). The protein concentrations of the cell lysates were determined by using Pierce BCA Protein Assay Kit (Thermo-Scientific, Rockford, Ill.). The glycogen content of each sample was normalized by total protein.

In the case of `C[C@@]12C[C@@H](c3ccoc3)OC(=O)[C@@H]1C[C@@H]1OC(=O)[C@@]3(O)[C@@H](O[C@@H]4O[C@H](CO)[C@@H](O)[C@H](O)[C@H]4O)CC[C@@H]2[C@@]13C` [Borapetoside A, borapetoside A], the “fold increase of glycogen content” value (10^−5 mol/L) is reported as 1.54±0.11 fold, the “fold increase of glycogen content” value (10^−6 mol/L) is reported as 1.39±0.12 fold and the “fold increase of glycogen content” value (10^−7 mol/L) is reported as 1.46±0.05 fold.
